Data taken from patent US20150104430A1, “Methods and Compositions for Generating Pancreatic Progenitors and Functional Beta Cells from hPSCs” (University Health Network, priority 2012, published 2015).

B1: Noggin (protein, UniProt Q13253 28-232, looked up)
Noggin: QHYLHIRPAPSDNLPLVDLIEHPDPIFDPKEKDLNETLLRSLLGGHYDPGFMATSPPEDRPGGGGGAAGGAEDLAELDQLLRQRPSGAMPSEIKGLEFSEGLAQGKKQRLSKKLRRKLQMWLWSQTFCPVLYAWNDLGSRFWPRYVKVGSCFSKRSCSVPEGMVCKPSKSVHLTVLRWRCQRRGGQRCGWIPIQYPIISECKCSC
notes: bone morphogenetic protein antagonist having Gene ID: 9241

How the values were obtained:
[1] = system: human fetal pancreatic cells; details: Otonkoski et al., 1993; cited from earlier work
[2] = system: human ES cell line: H9 (WA09); assay: Percentage of NKX6-1+ cells after stage 4 treatment of H9 (WA09)-derived endodermal cells; format: cell-based; details: day 13 of differentiation, treatment at stage 4

Row | Molecule | induction of endocrine differentiation [1] | Percentage of NKX6-1+ cells [2]
1 | NC(=O)c1cccnc1 [Nicotinamide (NA), Nicotinamide] | potent inducer of endocrine differentiation | 14.0%
2 | EGF [EGF (E)] |  | 18.5%
3 | B1 |  | 21.7%
